pIC50: −log10 of the molar value.
What follows are molecules tested against Prothrombin (Homo sapiens, UniProt P00734) (assay: Inhibition of thrombin).

Row | pIC50 | SMILES
1 | 4.32 | CC1(C)CCC[C@H]2[C@H]1CC[C@@]1(C)[C@@H]2CC/C(=C\OS(=O)(=O)O)[C@@H]1CCc1ccoc1 [listing 1 of 2 here]
2 | 4.37 | CC1(C)CCC[C@H]2[C@H]1CC[C@@]1(C)[C@@H]2CC/C(=C\OS(=O)(=O)O)[C@@H]1CCc1ccoc1 [listing 2 of 2 here]
3 | < 3.87 | C/C(=C\Cc1cc(O)ccc1O)CCC[C@@H](C)[C@@H](C[C@@H]1CCC[C@H]2C(C)(C)CCC[C@@]12C)OS(=O)(=O)O

Reference: BindingDB's records for doi:10.1021/np970376z (Aoyama Gakuin University, 1998)
